Counter-ions that a name gives are not always drawn.
Target: T1, hCaSR (Calcium sensing receptor) in stably transfected HEK293 cells (Homo sapiens, UniProt P41180)
T1 construct: expressed in transfected cells; host or cells: HEK293 (stably transfected)
T1 sequence (P41180 20-1078): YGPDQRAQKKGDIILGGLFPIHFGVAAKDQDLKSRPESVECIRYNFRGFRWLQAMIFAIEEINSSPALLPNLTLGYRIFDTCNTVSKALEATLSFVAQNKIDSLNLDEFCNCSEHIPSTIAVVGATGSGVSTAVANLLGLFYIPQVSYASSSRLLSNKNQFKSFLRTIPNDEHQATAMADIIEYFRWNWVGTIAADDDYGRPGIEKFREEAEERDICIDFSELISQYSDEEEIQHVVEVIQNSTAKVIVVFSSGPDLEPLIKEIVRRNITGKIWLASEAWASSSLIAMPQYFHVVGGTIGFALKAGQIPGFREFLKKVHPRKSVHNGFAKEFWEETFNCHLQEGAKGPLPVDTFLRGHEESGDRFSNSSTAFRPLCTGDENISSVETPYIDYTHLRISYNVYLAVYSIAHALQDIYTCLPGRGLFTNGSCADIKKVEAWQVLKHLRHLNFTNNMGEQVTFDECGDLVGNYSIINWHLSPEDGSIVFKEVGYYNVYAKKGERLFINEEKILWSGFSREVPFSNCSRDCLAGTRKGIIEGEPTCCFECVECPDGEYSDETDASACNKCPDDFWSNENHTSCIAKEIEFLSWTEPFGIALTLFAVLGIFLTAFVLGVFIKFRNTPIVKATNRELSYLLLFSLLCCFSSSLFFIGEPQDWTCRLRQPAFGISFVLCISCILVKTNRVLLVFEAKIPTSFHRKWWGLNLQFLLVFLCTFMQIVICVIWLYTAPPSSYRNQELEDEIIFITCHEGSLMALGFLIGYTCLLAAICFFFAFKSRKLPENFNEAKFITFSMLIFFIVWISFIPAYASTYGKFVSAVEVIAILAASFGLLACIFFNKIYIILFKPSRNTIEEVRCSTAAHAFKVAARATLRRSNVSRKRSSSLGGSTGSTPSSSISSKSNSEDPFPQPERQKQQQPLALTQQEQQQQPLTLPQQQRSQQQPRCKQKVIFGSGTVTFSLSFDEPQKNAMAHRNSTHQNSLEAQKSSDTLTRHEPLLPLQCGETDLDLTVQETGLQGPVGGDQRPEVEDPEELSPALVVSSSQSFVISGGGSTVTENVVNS
Test: In-vitro assay of calcimimetics through modulation of calcium sensing receptor (CaSR): increase in intracellular calcium, FLIPR
Format: cell-based
Conditions: HEK293 cells expressing hCaSR; intracellular calcium (Fluo4NW, FLIPR); 0.3 mM CaCl2; 8-point assay; read-out: EC50 in range
Protocol: In-Vitro Assay Method of Calcimemtics Through Modulation of Calcium Sensing Receptor (CaSR):
The ability of the compounds to modulate Calcium sensing receptor is determined by measuring an increase in intracellular calcium [Ca^2+i]. Stably transfected HEK293 cells expressing hCaSR_pTriEx-3 hygro vector are developed. Cells are grown overnight on a 96-well plate to 80% confluency in Ham's F12 containing 20% FBS at 37° C., 5% CO2 Subsequently, cells are washed extensively with 20 mM HEPES buffer containing 126 mM NaCl2, 1 mM MgCl2 and 4 mM KCl2 to remove serum components that might interfere with the assay. Cells are loaded with calcium sensing Fluo4NW dye in HEPES base buffer containing 0.1% BSA and 1 mg/ml glucose for 30 minutes to measure changes in intracellular calcium. The activities of the compounds are measured in FLIPR using 0.3 mM CaCl2 in 20 mM HEPES base buffer. The effectiveness of the compound to modulate receptor activity is determined by calculating the EC50 responses for that compound in an 8-point assay and plotted using GraphPad Prism 5.
The compounds prepared were tested using the above assay procedure and the results obtained are given below.

Structure (SMILES)	EC50
Cc1ccc(N2CCOC(CN[C@H](C)c3cccc4ccccc34)C2)cc1 (single isomer, unassigned) [27b]	< 20 nM
C[C@@H](NCC1CN(Cc2cccc(F)c2F)C(=O)CO1)c1cccc2ccccc12 (stereo partly drawn) [Example 81, 4-(2,3-Difluorobenzyl)-6-((((R)-1-(naphthalen-1-yl)ethyl)amino)methyl)morpholin-3-one hydrochloride]	< 20 nM
Cc1cc(N2CCOC(CCN[C@H](C)c3cccc4ccccc34)C2)ccc1C(=O)O (single isomer, unassigned) [Example 104a]	50 to 200 nM
C[C@@H](NCC1CN(c2cccc(F)c2)CCO1)c1cccc2ccccc12 (stereo partly drawn) [Example-3, (1R)-N-((4-(3-Fluorophenyl)morpholin-2-yl)methyl)-1-(naphthalen-1-yl)ethanamine hydrochloride]	20 to 50 nM
C[C@@H](NCC1CN(Cc2ccc(F)cc2C(F)(F)F)C(=O)CO1)c1cccc2ccccc12 (stereo partly drawn) [Example 82, 4-(4-Fluoro-2-(trifluoromethyl)benzyl)-6-((((R)-1-(naphthalen-1-yl)ethyl)amino)methyl)morpholin-3-one hydrochloride]	< 20 nM
C[C@@H](NCCC1CN(c2cccc(OCC(=O)O)c2)CCO1)c1cccc2ccccc12 (single isomer, unassigned) [Example 113a, hydrochloride]	50 to 200 nM
C[C@@H](NCCC1CN(c2ccc(C(=O)O)cc2)CCO1)c1cccc2ccccc12 (single isomer, unassigned) [Example 112a, hydrochloride]	50 to 200 nM
Cc1ccc(N2CCOC(CCN[C@H](C)c3cccc4ccccc34)C2)cc1CCC(=O)O (single isomer, unassigned) [Example 108a, hydrochloride]	20 to 50 nM
C[C@@H](NCC1CN(c2ccc(C(F)(F)F)cc2)CCO1)c1cccc2ccccc12 (single isomer, unassigned) [33b]	20 to 50 nM
Cc1ccc(N2CCOCC2CN[C@H](C)c2cccc3ccccc23)cc1 (single isomer, unassigned) [7b]	20 to 50 nM

Results, then the compound that gave them:

EC50	Structure (SMILES)
20 to 50 nM	COc1cc([C@@H](C)NCC2CN(Cc3cc(F)ccc3F)C(=O)CO2)ccc1F (single isomer, unassigned) [Example 160a, hydrochloride]
< 20 nM	COc1cccc(N2CCOC(CN[C@H](C)c3cccc4ccccc34)C2)c1 (single isomer, unassigned) [25a]
20 to 50 nM	COc1cccc([C@@H](C)NCC2CN(c3ccc(OC)c(F)c3)C(=O)CO2)c1 (stereo partly drawn) [Example-50, 4-(3-Fluoro-4-methoxyphenyl)-6-((((R)-1-(3-methoxyphenyl)ethyl)amino)methyl)morpholin-3-one]
20 to 50 nM	COc1cccc([C@@H](C)NCC2COCCN2c2cccc(OC)c2)c1 (single isomer, unassigned) [6a]
< 20 nM	C[C@@H](NCC1CN(c2cccc(F)c2F)C(=O)CO1)c1cccc2ccccc12 (stereo partly drawn) [compound 54, 4-(2,3-Difluorophenyl)-6-((((R)-1-(naphthalen-1-yl)ethyl)amino)methyl)morpholin-3-one hydrochloride]
< 20 nM	C[C@@H](NCC1CN(Cc2cc(F)ccc2F)C(=O)CO1)c1cccc2ccccc12 (single isomer, unassigned) [Example 72a, hydrochloride]
< 20 nM	COc1cccc([C@@H](C)NCC2COCCN2c2ccccc2)c1 (single isomer, unassigned) [11a]
< 20 nM	COc1cccc([C@@H](C)NCC2CN(c3ccc(F)c(F)c3)CCO2)c1 (stereo partly drawn) [Example 135, (1R)-N-((4-(3,4-Difluorophenyl)morpholin-2-yl)methyl)-1-(3-methoxyphenyl)ethanamine hydrochloride]
< 20 nM	COc1cccc([C@@H](C)NCC2CN(c3cccc(C)c3)CCO2)c1 (stereo partly drawn) [Example 134, (1R)-1-(3-Methoxyphenyl)-N-((4-(m-tolyl)morpholin-2-yl)methyl)ethanamine hydrochloride]

From US9382216B2, “Substituted morpholines as modulators for the calcium sensing receptor” (LUPIN LIMITED, priority 2011, dated 2016)
